This is an account of results in PMC7248705, “A Pharmacokinetic and Pharmacodynamic Evaluation of the Anti-Hepatocellular Carcinoma Compound 4-N-Carbobenzoxy-gemcitabine (Cbz-dFdC)” (Molecules, 2020).

Data set [1] in a line: Enzymatic kinetics in vitro, human liver S9. Format: in vitro ADME. As to the method: The SD rats without any treatment were sacrificed after adapting to the environment. Blank blood, the liver, the kidney, and the intestine were collected and treated as described in Section 4.4. Part of the homogenate was removed for centrifugation for 20 min at 9000× g at 4 °C, and the supernatant was obtained as tissue S9. The tissue homogenate and S9 were diluted to […] after the protein concentration was determined by the BCA kit (Abcam, Cambridge, MA, USA). Each matrix consisted of 45 uL of the matrix mixed with 5 uL of the drug dissolved in normal saline solution for about 3 min, followed by incubation at 37 °C in a water bath. Then, acetonitrile containing the internal standard was added to terminate the reaction. Human tissue S9 and human CES1 recombinase purchased from the Ruid Liver Disease Research Co., Ltd. (Shanghai, China) were incubated under the same conditions. An enzyme kinetic study was obtained from the matrix following incubation at 37 °C for 30 min with 5, 10, 20, 50, 100, or 200 μM of Cbz-dFdC. We estimated the parameters and simulated curves according to the Eadie–Hofstee method.

The subject of the next data set is HepG2 tumor. The data set can be described thus: Antitumor efficacy in vivo, HepG2 tumor-bearing mice. The following applies: 15 days, Cbz-dFdC i.g. 22 mg/kg/day vs dFdC i.p. 15 mg/kg/day (equimolar). As to the method:
A cell suspension (2 × 10^7 cells/mL) of HepG2 with 0.2 mL was subcutaneously injected into the right armpits of the mice. After the hepatocellular carcinomas were inoculated, mice bearing an overt tumor with a size of 100–200 mm^3 were randomized into the control and treatment groups. One group was injected (i.p.) with PBS as the control group, Cbz-dFdC groups were given with 22 mg/kg/day (i.g.), respectively, and the dFdC groups were given with 15 mg/kg/day (i.p.), respectively. The tumor sizes of all mice were monitored at 0 d, 3 d, 6 d, 9 d, 12 d, and 15 d after drug treatment. The tumor size was converted into tumor volume (V), which was calculated by the formula (L × W^2 × 0.52) and presented as the mean ± standard deviation, where L and W are the length and width of the tumor, respectively. The tumors were measured with a Vernier caliper until day 15, when the PBS brine-treated mice began to die, then all […] were sacrificed via nitrogen inhalation.

The nature of data set [2]: Plasma pharmacokinetics in vivo. Conditions: SD, rat, po; plasma analyte after i.g. Cbz-dFdC 22 mg/kg, rats. As to the method: SD rats (n = 6) were intragastrically administered Cbz-dFdC (22 mg/kg) and intravenously injected with dFdC (15 mg/kg), and 150 μL blood samples were collected from the retro-orbital route in the right eye at 0, 5, 10, 20, and 30 min and at 1, 2, 4, 6, 12, 24, and 48 h, using heparinized tubes. Without delay, the blood was directly centrifuged at 8000× g at 4 °C for 5 min. Then, the supernatant plasma was collected and immediately extracted using a previously established method or was frozen at −80 °C until further analysis.

Setting [3] is: Human Liver S9, 37 °C, 30 min, 5–200 μM Cbz-dFdC.

`O=C(Nc1ccn([C@@H]2O[C@H](CO)[C@@H](O)C2(F)F)c(=O)n1)OCc1ccccc1` [Cbz-dFdC, 4-N-carbobenzoxy-gemcitabine]: in data set [1] (setting [3]), the “Vmax, appearance of dFdC” value is 480.6 nmol/min/mg pro and the “Vmax, disappearance of Cbz-dFdC” value was found to be 1491.3 nmol/min/mg pro. Further, the microsomal CLint in data set [1] (Human Liver S9, 37 °C, 30 min, 5–200 μM Cbz-dFdC, read-out: Clint, disappearance of Cbz-dFdC) was 13800 µL/min/mg. For the same molecule, in data set [1] (Human Liver S9, 37 °C, 30 min, 5–200 μM Cbz-dFdC, read-out: Km, disappearance of Cbz-dFdC), the Km at 30 min worked out at 108 µM. For the same molecule, the “stability in human liver S9” value in data set [1] (human liver S9, easily hydrolyzed into dFdC) was “unstable”. Further, the “antitumor effect (tumor size)” value in the data set with HepG2 tumor is “slightly better than that of dFdC”. In data set [2], the AUC(0-inf) worked out at 2690 ± 457 ng·h/mL, the peak level (Cmax) was 451 ± 107 ng/mL, the time of peak concentration (Tmax) turned out to be 2 h and the half-life was 9.91 ± 1.87 h.
